Assay results published in patent US20240091279A1, “COMBINATION THERAPY FOR INFLAMMATORY DISEASES” (University of lowa Research Foundation, priority 2022, published 2024).
Like-named read-outs stand apart in the source and are kept apart here.

Columns and labels:
[1] = tested on: experimental autoimmune encephalomyelitis (EAE); details: earlier published studies, cited from earlier work
[2] = versus the original isoflavones; cited from earlier work
[3] = tested on: mouse model of MS; assay: Mouse model of MS, Example I; format: in vivo, mice; details: versus diet lacking phytoestrogen

Compound: Parabacteroides distasonis
- EAE disease [1]: sufficient to ameliorate EAE

Compound: Oc1ccc([C@H]2COc3cc(O)ccc3C2)cc1 [S-equol]
- estrogenic activity [2]: significantly higher estrogenic activity
- EAE disease [1]: sufficient to ameliorate EAE
- EAE disease ([1]; listed as equol): protect
- disease severity [3]: mimic some of the disease protective function
